Test results as given in ChEMBL document CHEMBL4673297, “Glutathione peroxidase-like functions of 1,2-diselenane-4,5-diol and its amphiphilic derivatives: Switchable catalytic cycles depending on peroxide substrates” (Bioorg Med Chem, 2021).
pIC50: −log10 of the molar value. Calls of active or inactive are those of the source. The calls are words filed in the database; no cut-off is given here.

Tests used:
[1] = Glutathione peroxidase-like catalytic anti-lipid peroxidation activity assessed as inhibition of AAPH-induced lipid peroxidation incubated for 3 hrs using soybean lecithin/cholesterol-liposomes by TBARS assay; assay type: physicochemical
[2] = (§1) Glutathione peroxidase-like catalytic antioxidant activity in pH 7 phosphate buffer assessed as catalytic reduction of H2O2 by measuring initial velocity at 100 uM and 25 degreeC using GSH as mono-thiol co-substrate in presence of NADPH by UV absorbance analysis (reference value: 11 +/- 0.4 microM/min); assay type: functional
HeLa [3] = assay: (§2) Cytotoxicity against human HeLa cells assessed as cell viability at 20 uM measured after 15 hrs by MTT assay relative to control; assay type: cell-based; details: hela, 15 h, 20 µM
HeLa [4] = assay: Cytotoxicity against human HeLa cells assessed as reduction in cell viability at 100 uM measured after 15 hrs hrs by MTT assay; assay type: cell-based
[5] = as §1, with “0.2 mM” for “100 uM”, “reduced DTT” for “GSH”, “di-thiol” for “mono-thiol”, “72+/- 3” for “11 +/- 0.4”; assay type: functional
HeLa [6] = assay: Protection against AAPH-induced oxidative stress in human HeLa cells assessed as increase in cell viability at 5 to 20 uM preincubated for 15 hrs followed by incubation with AAPH for 3 hrs by MTT assay relative to control; assay type: functional; details: dose 5-20 µM; time 18 hrs
HeLa [7] = assay: Protection against H2O2-induced oxidative stress in human HeLa cells assessed as cell viability at 20 uM preincubated with compound for 15 hrs followed by drug wash-out and later incubated with H2O2 for 4 hrs by MTT assay; assay type: functional, cell-based
[8] = Solubility of the compound in phosphate buffer solution at pH 7.5 in presence of reduced DTT; assay type: physicochemical
[9] = Glutathione peroxidase-like catalytic activity assessed as drug oxidation by measuring (S)-2-Oxo-2lambda(4)-[1,2]diselenan-4-yl-ammonium formation incubated with 3.8 mM H2O2 in water at 3.8 mM incubated for 30 mins by ESI(+)-MS spectral analysis; assay type: functional
[10] = Glutathione peroxidase-like catalytic activity assessed as drug oxidation by measuring (S)-2-Oxo-2lambda(4)-[1,2]diselenan-4-yl-ammonium formation incubated with 8.6 mM H2O2 and 8.6 mM reduced DTT in water at 3.8 mM incubated for 2 mins by ESI(+)-MS spectral analysis; assay type: functional
[11] = Glutathione peroxidase-like catalytic activity assessed as drug oxidation by measuring (S)-2-Oxo-2lambda(4)-[1,2]diselenan-4-yl-ammonium formation incubated with 8.6 mM H2O2 in water at 3.8 mM incubated for 3 hrs by ESI(+)-MS spectral analysis; assay type: functional
[12] = Glutathione peroxidase-like catalytic activity assessed as drug oxidation by measuring (S)-2,7-Dioxo-2lambda(4),7lambda(4)-[1,2,7]oxadiselenepan-4-yl-ammonium formation incubated with 8.6 mM H2O2 in water at 3.8 mM incubated for 3 hrs by ESI(+)-MS spectral analysis; assay type: functional
[13] = Glutathione peroxidase-like catalytic activity assessed as drug oxidation by measuring (S)-[1,2,7]Oxadiselenepan-4-yl-ammonium formation incubated with 3.8 mM H2O2 in water at 3.8 mM incubated for 30 mins by ESI(+)-MS spectral analysis; assay type: functional
[14] = Glutathione peroxidase-like catalytic activity assessed as drug oxidation by measuring (S)-[1,2,7]Oxadiselenepan-4-yl-ammonium formation incubated with 8.6 mM H2O2 in water at 3.8 mM incubated for 3 hrs by ESI(+)-MS spectral analysis; assay type: functional
[15] = Glutathione peroxidase-like catalytic activity assessed as drug oxidation by measuring (S)-2-Oxo-2lambda(4)-[1,2,7]oxadiselenepan-4-yl-ammonium formation incubated with 3.8 mM H2O2 in water at 3.8 mM incubated for 30 mins by ESI(+)-MS spectral analysis; assay type: functional
[16] = Glutathione peroxidase-like catalytic activity assessed as drug oxidation by measuring (S)-2-Oxo-2lambda(4)-[1,2,7]oxadiselenepan-4-yl-ammonium formation incubated with 8.6 mM H2O2 in water at 3.8 mM incubated for 3 hrs by ESI(+)-MS spectral analysis; assay type: functional
[17] = Glutathione peroxidase-like catalytic activity assessed as drug oxidation by measuring (2S)-1,4-diseleninobutan-2-aminium formation incubated with 8.6 mM H2O2 in water at 3.8 mM incubated for 3 hrs by ESI(+)-MS spectral analysis; assay type: functional
[18] = Glutathione peroxidase-like catalytic activity assessed as drug oxidation by measuring (S)-2,7-Dioxo-2lambda(4),7lambda(4)-[1,2,7]oxadiselenepan-4-yl-ammonium formation incubated with 3.8 mM H2O2 in water at 3.8 mM incubated for 30 mins by ESI(+)-MS spectral analysis; assay type: functional
[19] = Glutathione peroxidase-like catalytic activity assessed as drug oxidation by measuring (S)-2-Oxo-2lambda(4)-[1,2,7]oxadiselenepan-4-yl-ammonium formation incubated with 8.6 mM H2O2 and 8.6 mM reduced DTT in water at 3.8 mM incubated for 2 mins by ESI(+)-MS spectral analysis; assay type: functional
[20] = Glutathione peroxidase-like catalytic activity assessed as drug oxidation by measuring (2S)-1,4-diseleninobutan-2-aminium formation incubated with 8.6 mM H2O2 and 8.6 mM reduced DTT in water at 3.8 mM incubated for 2 mins by ESI(+)-MS spectral analysis; assay type: functional
[21] = Glutathione peroxidase-like catalytic activity assessed as drug oxidation by measuring (S)-[1,2,7]Oxadiselenepan-4-yl-ammonium formation incubated with 8.6 mM H2O2 and 8.6 mM reduced DTT in water at 3.8 mM incubated for 2 mins by ESI(+)-MS spectral analysis; assay type: functional
[22] = Glutathione peroxidase-like catalytic activity assessed as drug oxidation by measuring (S)-2,7-Dioxo-2lambda(4),7lambda(4)-[1,2,7]oxadiselenepan-4-yl-ammonium formation incubated with 8.6 mM H2O2 and 8.6 mM reduced DTT in water at 3.8 mM incubated for 2 mins by ESI(+)-MS spectral analysis; assay type: functional
[23] = Glutathione peroxidase-like catalytic antioxidant activity in pH 7 phosphate buffer assessed as catalytic reduction of H2O2 by measuring lipoic acid formation using DHLA as co-substrate at 0.2 mM in presence of NADPH by UV absorbance analysis; assay type: functional
[24] = Glutathione peroxidase-like catalytic antioxidant activity assessed as CST-HCl thiol co-substrate oxidation by measuring disulfide formation at 11.5 umol in presence of CHP lipophilic peroxide in water/CH2Cl2 solution incubated for 24 hrs by 1H-NMR spectroscopy; assay type: functional; details: dose 11.5 µmol
[25] = Glutathione peroxidase-like catalytic antioxidant activity assessed as CST-HCl thiol co-substrate oxidation by measuring disulfide formation at 11.5 umol in presence of CHP lipophilic peroxide in 10 mM aqueous HCl/CH2Cl2 solution incubated for 24 hrs by 1H-NMR spectroscopy; assay type: functional; details: dose 11.5 µmol
[26] = Antioxidant activity assessed as radical scavenging activity by measuring DPBQ generation using DPPD and AMVN as radical initiator at 0.5 mM preincubated for 5 mins with DPPD followed by AMVN addition and measured for 30 mins by UV/Vis-spectrophotometry analysis; assay type: functional; details: time 35.0 min
[27] = as §2; assay type: cell-based; details: HeLa cells, read-out: Activity
[28] = Glutathione peroxidase-like catalytic anti-lipid peroxidation activity assessed as inhibition of AAPH-induced lipid peroxidation incubated for 3 hrs in presence of (+/-)-trans-5-Hydroxy-1,2-diselenan-4-yl dodecanoate using soybean lecithin/cholesterol-liposomes by TBARS assay; assay type: physicochemical

SMILES | pIC50 [1] | V0 [2] | Activity (HeLa [3]) | Activity (HeLa [4]) | V0 [5] | fold change (FC) (HeLa [6]) | Activity (HeLa [7]) | solubility [8] | further results
CCCCCCCC(=O)O[C@@H]1C[Se][Se]C[C@H]1O (racemic) | 4.52 | 11.9 µM/min | Non-Toxic | Non-Toxic | 109 µM/min | 1.5 | inactive | Soluble | 
N[C@H]1CC[Se][Se]C1 |  |  |  |  |  |  |  |  | Drug metabolism [9]: Metabolite detected; Drug metabolism [10]: Metabolite detected; Drug metabolism [11]: Metabolite detected; Drug metabolism [12]: Metabolite detected; Drug metabolism [13]: Metabolite detected; Drug metabolism [14]: Metabolite detected; Drug metabolism [15]: Metabolite detected; Drug metabolism [16]: Metabolite detected; Drug metabolism [17]: Metabolite detected; Drug metabolism [18]: Metabolite detected; Drug metabolism [19]: Metabolite not detected; Drug metabolism [20]: Metabolite not detected; Drug metabolism [21]: Metabolite detected; Drug metabolism [22]: Metabolite not detected
CCCCCC(=O)O[C@@H]1C[Se][Se]C[C@H]1O (racemic) | 4.37 | 14.9 µM/min | Toxic | Toxic | 149 µM/min |  | inactive | Soluble | Activity [23]: Active
O[C@@H]1C[Se]C[C@H]1O |  |  |  |  |  |  |  |  | IC50 [2]: Not Active; IC50 [5]: Not Active
CCCCCCCCCCCCCC(=O)O[C@@H]1C[Se][Se]C[C@H]1O (racemic) | 4.78 | 9.1 µM/min | Non-Toxic | Non-Toxic | 63 µM/min | 1.5 | inactive | Soluble | Activity [24]: Active; Activity [25]: Active; Activity [26]: inactive
CCCCCCCCCC(=O)O[C@@H]1C[Se][Se]C[C@H]1O (racemic) | 4.88 | 10.9 µM/min | Non-Toxic | Non-Toxic | 172 µM/min | 1.5 | inactive | Soluble | 
CCCCCCCCCCCC(=O)O[C@@H]1C[Se][Se]C[C@H]1O (racemic) | 4.97 | 9.3 µM/min | Non-Toxic | Non-Toxic | 122 µM/min | 1.5 | inactive | Soluble | 
c1ccc([Se][Se]c2ccccc2)cc1 | 4.15 |  |  |  |  |  |  |  | 
CCC(=O)O[C@@H]1C[Se][Se]C[C@H]1O (racemic) | 3.92 | 23 µM/min | Toxic | Toxic | 330 µM/min |  | inactive | Soluble | Activity [23]: Active
O=c1c2ccccc2[se]n1-c1ccccc1 [EBSELEN] | 4.09 | 32.6 µM/min |  |  | 202 µM/min |  |  |  | viability at 15 h, 20 µM [27]: 80%
O=C(O[C@@H]1C[Se][Se]C[C@H]1O)c1ccc2ccccc2c1 (racemic) | 4.81 | 11.3 µM/min | Non-Toxic | Toxic |  | 1.5 | inactive | Insoluble | 
O=C(O[C@@H]1C[Se][Se]C[C@H]1O)c1ccccc1 (racemic) | 4.56 | 12.7 µM/min | Toxic | Toxic | 116 µM/min |  | inactive | Soluble | 
CC1=NN(c2ccccc2)C(=O)C1 [EDARAVONE] | 4.53 |  |  |  |  |  |  |  | pIC50 [28]: 4.73
